In patent publication US12077503B2, “Substituted cyclic amides and their use as herbicides” (FMC CORPORATION, priority 2015, dated 2024):

Assays:
Assay type in all cases: in vivo
[1] = system: ivy-leaved morning glory (Ipomoea hederacea); experiment: Test G Pre-Emergence Protocol; details: Ipomoea, pre-emergence, 312 h, evaluated after 13 days; for pest or weed control at 15.625 g/ha: 15.625 g ai/ha; for pest or weed control at 15.625 g/ha / pest or weed control at 250 g/ha: read-out: Morningglory, Ivy-leaved damage rating (100=total damage to plant; 0=no damage to plant); for pest or weed control at 62.5 g/ha: 62.5 g ai/ha, 100=total damage to plant, 0=no damage to plant, read-out: Morningglory, Ivy-leaved damage rating; for pest or weed control at 250 g/ha: 250 g ai/ha
Summary of the method: (§1)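 One day after sowing, pots are treated with a spray of test compound formulated in acetone/water 50:50 plus 0.5% Tween 20, giving 15.625, 62.5 or 250 g/ha. Evaluation on a 0–100 damage scale follows 13 days of glasshouse growth.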

[2] = system: velvetleaf (Abutilon theophrasti); experiment: Test G Pre-Emergence Protocol; details: Abutilon theophrasti, pre-emergence, 312 h, evaluated after 13 days; for pest or weed control at 15.625 g/ha: 15.625 g ai/ha; for pest or weed control at 15.625 g/ha / pest or weed control at 250 g/ha: read-out: Velvetleaf damage rating (100=total damage to plant; 0=no damage to plant); for pest or weed control at 62.5 g/ha: 62.5 g ai/ha, 100=total damage to plant, 0=no damage to plant, read-out: Velvetleaf damage rating; for pest or weed control at 250 g/ha: 250 g ai/ha
Summary of the method: as §1

[3] = system: giant foxtail (Setaria faberi); experiment: Test G Pre-Emergence Protocol; details: Setaria faberi, pre-emergence, 312 h, evaluated after 13 days; for pest or weed control at 15.625 g/ha: 15.625 g ai/ha; for pest or weed control at 15.625 g/ha / pest or weed control at 250 g/ha: read-out: Foxtail, Giant damage rating (100=total damage to plant; 0=no damage to plant); for pest or weed control at 62.5 g/ha: 62.5 g ai/ha, 100=total damage to plant, 0=no damage to plant, read-out: Foxtail, Giant damage rating; for pest or weed control at 250 g/ha: 250 g ai/ha
Summary of the method: as §1

[4] = system: barnyardgrass (Echinochloa crus-galli); experiment: Test G Pre-Emergence Protocol; details: Echinochloa crus-galli, pre-emergence, 312 h, evaluated after 13 days; for pest or weed control at 15.625 g/ha: 15.625 g ai/ha; for pest or weed control at 15.625 g/ha / pest or weed control at 250 g/ha: read-out: Barnyardgrass damage rating (100=total damage to plant; 0=no damage to plant); for pest or weed control at 62.5 g/ha: 62.5 g ai/ha, 100=total damage to plant, 0=no damage to plant, read-out: Barnyardgrass damage rating; for pest or weed control at 250 g/ha: 250 g ai/ha
Summary of the method: as §1

[5] = system: redroot pigweed (Amaranthus retroflexus); experiment: Test G Pre-Emergence Protocol; details: Amaranthus retroflexus, pre-emergence, 312 h, evaluated after 13 days; for pest or weed control at 15.625 g/ha: 15.625 g ai/ha; for pest or weed control at 15.625 g/ha / pest or weed control at 250 g/ha: read-out: Pigweed, Redroot damage rating (100=total damage to plant; 0=no damage to plant); for pest or weed control at 62.5 g/ha: 62.5 g ai/ha, 100=total damage to plant, 0=no damage to plant, read-out: Pigweed, Redroot damage rating; for pest or weed control at 250 g/ha: 250 g ai/ha
Summary of the method: as §1

[6] = system: corn (Zea mays); experiment: Test G Pre-Emergence Protocol; details: Zea mays, pre-emergence, 312 h, evaluated after 13 days; for plant injury at 15.625 g/ha: 15.625 g ai/ha; for plant injury at 15.625 g/ha / plant injury at 250 g/ha: read-out: Corn damage rating (100=total damage to plant; 0=no damage to plant); for plant injury at 62.5 g/ha: 62.5 g ai/ha, 100=total damage to plant, 0=no damage to plant, read-out: Corn damage rating; for plant injury at 250 g/ha: 250 g ai/ha
Summary of the method: as §1

[7] = system: ivy-leaved morning glory (Ipomoea hederacea); experiment: Test G Post-Emergence Protocol; details: Ipomoea, post-emergence, 312 h, read-out: Morningglory, Ivy-leaved damage rating; for pest or weed control at 15.625 g/ha: 15.625 g ai/ha, evaluated after 13 days (100=total damage to plant; 0=no damage to plant); for pest or weed control at 62.5 g/ha: 62.5 g ai/ha; for pest or weed control at 62.5 g/ha / pest or weed control at 250 g/ha: evaluated after 13 days, 100=total damage to plant, 0=no damage to plant; for pest or weed control at 250 g/ha: 250 g ai/ha
Summary of the method: (§2)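 Sow in soil; grow 8 d (24/16 °C, 14 h light, 65% humidity); spray 15.625/62.5/250 g/ha in acetone:water 50:50 + 0.5% Tween 20; grow on, water twice daily; score damage 0–100 at 13 d.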

[8] = system: velvetleaf (Abutilon theophrasti); experiment: Test G Post-Emergence Protocol; details: Abutilon theophrasti, post-emergence, 312 h, read-out: Velvetleaf damage rating; for pest or weed control at 15.625 g/ha: 15.625 g ai/ha, evaluated after 13 days (100=total damage to plant; 0=no damage to plant); for pest or weed control at 62.5 g/ha: 62.5 g ai/ha; for pest or weed control at 62.5 g/ha / pest or weed control at 250 g/ha: evaluated after 13 days, 100=total damage to plant, 0=no damage to plant; for pest or weed control at 250 g/ha: 250 g ai/ha
Summary of the method: as §2

[9] = system: giant foxtail (Setaria faberi); experiment: Test G Post-Emergence Protocol; details: Setaria faberi, post-emergence, 312 h, read-out: Foxtail, Giant damage rating; for pest or weed control at 15.625 g/ha: 15.625 g ai/ha, evaluated after 13 days (100=total damage to plant; 0=no damage to plant); for pest or weed control at 62.5 g/ha: 62.5 g ai/ha; for pest or weed control at 62.5 g/ha / pest or weed control at 250 g/ha: evaluated after 13 days, 100=total damage to plant, 0=no damage to plant; for pest or weed control at 250 g/ha: 250 g ai/ha
Summary of the method: as §2

[10] = system: barnyardgrass (Echinochloa crus-galli); experiment: Test G Post-Emergence Protocol; details: Echinochloa crus-galli, post-emergence, 312 h, read-out: Barnyardgrass damage rating; for pest or weed control at 15.625 g/ha: 15.625 g ai/ha, evaluated after 13 days (100=total damage to plant; 0=no damage to plant); for pest or weed control at 62.5 g/ha: 62.5 g ai/ha; for pest or weed control at 62.5 g/ha / pest or weed control at 250 g/ha: evaluated after 13 days, 100=total damage to plant, 0=no damage to plant; for pest or weed control at 250 g/ha: 250 g ai/ha
Summary of the method: as §2

[11] = system: redroot pigweed (Amaranthus retroflexus); experiment: Test G Post-Emergence Protocol; details: Amaranthus retroflexus, post-emergence, 312 h, read-out: Pigweed, Redroot damage rating; for pest or weed control at 15.625 g/ha: 15.625 g ai/ha, evaluated after 13 days (100=total damage to plant; 0=no damage to plant); for pest or weed control at 62.5 g/ha: 62.5 g ai/ha; for pest or weed control at 62.5 g/ha / pest or weed control at 250 g/ha: evaluated after 13 days, 100=total damage to plant, 0=no damage to plant; for pest or weed control at 250 g/ha: 250 g ai/ha
Summary of the method: as §2

[12] = system: corn (Zea mays); experiment: Test G Post-Emergence Protocol; details: Zea mays, post-emergence, 312 h, read-out: Corn damage rating; for plant injury at 15.625 g/ha: 15.625 g ai/ha, evaluated after 13 days (100=total damage to plant; 0=no damage to plant); for plant injury at 62.5 g/ha: 62.5 g ai/ha; for plant injury at 62.5 g/ha / plant injury at 250 g/ha: evaluated after 13 days, 100=total damage to plant, 0=no damage to plant; for plant injury at 250 g/ha: 250 g ai/ha
Summary of the method: as §2

Row | SMILES | pest or weed control at 15.625 g/ha [1] [%] | pest or weed control at 62.5 g/ha [1] [%] | pest or weed control at 250 g/ha [1] [%] | pest or weed control at 15.625 g/ha [2] [%] | pest or weed control at 62.5 g/ha [2] [%] | pest or weed control at 250 g/ha [2] [%] | pest or weed control at 15.625 g/ha [3] [%] | pest or weed control at 62.5 g/ha [3] [%] | pest or weed control at 250 g/ha [3] [%] | pest or weed control at 15.625 g/ha [4] [%] | pest or weed control at 62.5 g/ha [4] [%] | pest or weed control at 250 g/ha [4] [%] | pest or weed control at 15.625 g/ha [5] [%] | pest or weed control at 62.5 g/ha [5] [%] | pest or weed control at 250 g/ha [5] [%] | plant injury at 15.625 g/ha [6] [%] | plant injury at 62.5 g/ha [6] [%] | plant injury at 250 g/ha [6] [%] | pest or weed control at 15.625 g/ha [7] [%] | pest or weed control at 62.5 g/ha [7] [%] | other results
1 | Cc1cccc(NC(=O)[C@H]2C(=O)N(C)C[C@@H]2c2ccc(C(F)(F)F)cc2)[n+]1[O-] (racemic) [Compound 1805] | 0 | 0 | 0 | 0 | 20 | 20 | 0 | 0 | 10 | 0 | 0 | 0 | 20 | 10 | 30 | 0 | 0 | 0 | 0 | 30 | pest or weed control at 250 g/ha [7]: 30%; pest or weed control at 15.625 g/ha [8]: 0%; pest or weed control at 62.5 g/ha [8]: 20%; pest or weed control at 250 g/ha [8]: 30%; pest or weed control at 15.625 g/ha [9]: 0%; pest or weed control at 62.5 g/ha [9]: 30%; pest or weed control at 250 g/ha [9]: 40%; pest or weed control at 15.625 g/ha [10]: 0%; pest or weed control at 62.5 g/ha [10]: 0%; pest or weed control at 250 g/ha [10]: 0%; pest or weed control at 15.625 g/ha [11]: 10%; pest or weed control at 62.5 g/ha [11]: 60%; pest or weed control at 250 g/ha [11]: 40%; plant injury at 15.625 g/ha [12]: 0%; plant injury at 62.5 g/ha [12]: 0%; plant injury at 250 g/ha [12]: 0%
2 | Cc1cc([C@H]2CN(C)C(=O)[C@@H]2C(=O)Nc2ccccc2S(C)(=O)=O)cc(C(F)(F)F)c1 (racemic) [Compound 1795] | 0 | 10 | 60 | 0 | 0 | 10 | 60 | 80 | 90 | 30 | 70 | 80 | 0 | 20 | 30 | 0 | 40 | 80 | 10 | 20 | pest or weed control at 250 g/ha [7]: 70%; pest or weed control at 15.625 g/ha [8]: 0%; pest or weed control at 62.5 g/ha [8]: 0%; pest or weed control at 250 g/ha [8]: 20%; pest or weed control at 15.625 g/ha [9]: 60%; pest or weed control at 62.5 g/ha [9]: 80%; pest or weed control at 250 g/ha [9]: 80%; pest or weed control at 15.625 g/ha [10]: 20%; pest or weed control at 62.5 g/ha [10]: 70%; pest or weed control at 250 g/ha [10]: 70%; pest or weed control at 15.625 g/ha [11]: 0%; pest or weed control at 62.5 g/ha [11]: 20%; pest or weed control at 250 g/ha [11]: 30%; plant injury at 15.625 g/ha [12]: 0%; plant injury at 62.5 g/ha [12]: 40%; plant injury at 250 g/ha [12]: 70%
